Measured values taken from the NIST ThermoML archive (doi:10.1016/j.jct.2016.01.017).
± gives the expanded uncertainty stated by the source.

Assay: activity coefficient (dimensionless); of the first substance listed, at infinite dilution; xn = mol fraction of the nth substance listed
Conditions: 100 kPa, Liquid, Chromatography, x1 = 0

Structure (SMILES) | activity coefficient (308.15 K) | activity coefficient (318.15 K) | activity coefficient (328.15 K) | activity coefficient (338.15 K) | activity coefficient (348.15 K) | activity coefficient (358.15 K) | activity coefficient (368.15 K)
Cc1ccccc1C [1,2-dimethylbenzene] + CCCC[n+]1ccc(C#N)cc1.O=S(=O)([N-]S(=O)(=O)C(F)(F)F)C(F)(F)F | 1.79 ± 0.15 | 1.89 ± 0.16 | 2 ± 0.17 | 2.1 ± 0.18 | 2.21 ± 0.19 | 2.3 ± 0.2 | 2.39 ± 0.21
Cc1cccc(C)c1 [1,3-dimethylbenzene] + CCCC[n+]1ccc(C#N)cc1.O=S(=O)([N-]S(=O)(=O)C(F)(F)F)C(F)(F)F | 2.13 ± 0.18 | 2.25 ± 0.19 | 2.37 ± 0.2 | 2.49 ± 0.21 | 2.6 ± 0.22 | 2.71 ± 0.23 | 2.83 ± 0.24
Cc1ccc(C)cc1 [1,4-dimethylbenzene] + CCCC[n+]1ccc(C#N)cc1.O=S(=O)([N-]S(=O)(=O)C(F)(F)F)C(F)(F)F | 2.15 ± 0.19 | 2.28 ± 0.2 | 2.4 ± 0.21 | 2.52 ± 0.22 | 2.65 ± 0.23 | 2.77 ± 0.24 | 2.89 ± 0.25
C1COCCO1 [1,4-dioxane] + CCCC[n+]1ccc(C#N)cc1.O=S(=O)([N-]S(=O)(=O)C(F)(F)F)C(F)(F)F | 0.419 ± 0.041 | 0.461 ± 0.044 | 0.502 ± 0.046 | 0.544 ± 0.049 | 0.587 ± 0.052 | 0.631 ± 0.055 | 0.676 ± 0.058
C=CCCCCCCCC [1-decene] + CCCC[n+]1ccc(C#N)cc1.O=S(=O)([N-]S(=O)(=O)C(F)(F)F)C(F)(F)F | 59.4 ± 5.1 | 57.3 ± 5 | 55.2 ± 4.8 | 53.5 ± 4.6 | 51.8 ± 4.5 | 50.4 ± 4.4 | 49 ± 4.2
C=CCCCCC [1-heptene] + CCCC[n+]1ccc(C#N)cc1.O=S(=O)([N-]S(=O)(=O)C(F)(F)F)C(F)(F)F | 21.3 ± 1.8 | 20.7 ± 1.8 | 20 ± 1.7 | 19.5 ± 1.7 | 19 ± 1.6 | 18.5 ± 1.6 | 18.1 ± 1.6
C#CCCCCC [1-heptyne] + CCCC[n+]1ccc(C#N)cc1.O=S(=O)([N-]S(=O)(=O)C(F)(F)F)C(F)(F)F | 6.92 ± 0.6 | 7.02 ± 0.61 | 7.11 ± 0.61 | 7.21 ± 0.62 | 7.3 ± 0.63 | 7.39 ± 0.64 | 7.48 ± 0.65
C#CCCCC [1-hexyne] + CCCC[n+]1ccc(C#N)cc1.O=S(=O)([N-]S(=O)(=O)C(F)(F)F)C(F)(F)F | 4.81 ± 0.41 | 4.91 ± 0.42 | 5.01 ± 0.43 | 5.1 ± 0.44 | 5.19 ± 0.45 | 5.28 ± 0.46 | 5.36 ± 0.46
CCC[N+](=O)[O-] [1-nitropropane] + CCCC[n+]1ccc(C#N)cc1.O=S(=O)([N-]S(=O)(=O)C(F)(F)F)C(F)(F)F | 0.74 ± 0.063 | 0.768 ± 0.065 | 0.796 ± 0.067 | 0.824 ± 0.069 | 0.851 ± 0.071 | 0.877 ± 0.073 | 0.904 ± 0.075
C#CCCCCCC [1-octyne] + CCCC[n+]1ccc(C#N)cc1.O=S(=O)([N-]S(=O)(=O)C(F)(F)F)C(F)(F)F | 10.1 ± 0.9 | 10.2 ± 0.9 | 10.3 ± 0.9 | 10.3 ± 0.9 | 10.4 ± 0.9 | 10.4 ± 0.9 | 10.5 ± 0.9
C=CCCC [1-pentene] + CCCC[n+]1ccc(C#N)cc1.O=S(=O)([N-]S(=O)(=O)C(F)(F)F)C(F)(F)F | 11.5 ± 1 | 10.9 ± 0.9 | 10.3 ± 0.9 | 9.83 ± 0.85 | 9.41 ± 0.81 | 9.02 ± 0.78 | 8.65 ± 0.75
C#CCCC [1-pentyne] + CCCC[n+]1ccc(C#N)cc1.O=S(=O)([N-]S(=O)(=O)C(F)(F)F)C(F)(F)F | 3.4 ± 0.29 | 3.48 ± 0.3 | 3.56 ± 0.31 | 3.64 ± 0.31 | 3.7 ± 0.3 | 3.77 ± 0.33 | 3.84 ± 0.33
CC(C)CC(C)(C)C [2,2,4-trimethylpentane] + CCCC[n+]1ccc(C#N)cc1.O=S(=O)([N-]S(=O)(=O)C(F)(F)F)C(F)(F)F | 46.5 ± 4 | 42.9 ± 3.7 | 39.8 ± 3.4 | 37 ± 3.2 | 34.7 ± 3 | 32.5 ± 2.8 | 30.7 ± 2.7
CCC(C)(C)C [2,2-dimethylbutane] + CCCC[n+]1ccc(C#N)cc1.O=S(=O)([N-]S(=O)(=O)C(F)(F)F)C(F)(F)F | 34.9 ± 3 | 31.3 ± 2.7 | 28.2 ± 2.4 | 25.6 ± 2.2 | 23.4 ± 2 | 21.4 ± 1.9 | 19.7 ± 1.7
CCOC(C)(C)C [2-ethoxy-2-methylpropane] + CCCC[n+]1ccc(C#N)cc1.O=S(=O)([N-]S(=O)(=O)C(F)(F)F)C(F)(F)F | 8.97 ± 0.77 | 8.89 ± 0.77 | 8.84 ± 0.76 | 8.8 ± 0.76 | 8.78 ± 0.76 | 8.73 ± 0.75 | 8.68 ± 0.75
CCC(C)(C)OC [2-methoxy-2-methylbutane] + CCCC[n+]1ccc(C#N)cc1.O=S(=O)([N-]S(=O)(=O)C(F)(F)F)C(F)(F)F | 4.33 ± 0.37 | 4.48 ± 0.39 | 4.62 ± 0.4 | 4.76 ± 0.41 | 4.88 ± 0.42 | 5.01 ± 0.43 | 5.13 ± 0.44
COC(C)(C)C [2-methoxy-2-methylpropane] + CCCC[n+]1ccc(C#N)cc1.O=S(=O)([N-]S(=O)(=O)C(F)(F)F)C(F)(F)F | 3.01 ± 0.26 | 3.13 ± 0.27 | 3.24 ± 0.28 | 3.35 ± 0.29 | 3.45 ± 0.3 | 3.56 ± 0.31 | 3.66 ± 0.32
CC(C)CO [2-methyl-1-propanol] + CCCC[n+]1ccc(C#N)cc1.O=S(=O)([N-]S(=O)(=O)C(F)(F)F)C(F)(F)F | 3.2 ± 0.28 | 2.93 ± 0.25 | 2.7 ± 0.23 | 2.5 ± 0.22 | 2.32 ± 0.2 | 2.18 ± 0.19 | 2.04 ± 0.18
CC(C)(C)O [2-methylpropan-2-ol] + CCCC[n+]1ccc(C#N)cc1.O=S(=O)([N-]S(=O)(=O)C(F)(F)F)C(F)(F)F | 2.28 ± 0.2 | 2.14 ± 0.18 | 2.01 ± 0.17 | 1.9 ± 0.16 | 1.8 ± 0.15 | 1.71 ± 0.15 | 1.63 ± 0.14
CCC(C)CC [3-methylpentane] + CCCC[n+]1ccc(C#N)cc1.O=S(=O)([N-]S(=O)(=O)C(F)(F)F)C(F)(F)F | 30.7 ± 2.7 | 28.4 ± 2.5 | 26.4 ± 2.3 | 24.7 ± 2.1 | 23.1 ± 2 | 21.7 ± 1.9 | 20.6 ± 1.8
C=C(C)c1ccccc1 [(1-methylethenyl)benzene] + CCCC[n+]1ccc(C#N)cc1.O=S(=O)([N-]S(=O)(=O)C(F)(F)F)C(F)(F)F | 1.94 ± 0.17 | 2.09 ± 0.18 | 2.24 ± 0.19 | 2.4 ± 0.21 | 2.55 ± 0.22 | 2.7 ± 0.23 | 2.86 ± 0.25
CC(C)=O [acetone] + CCCC[n+]1ccc(C#N)cc1.O=S(=O)([N-]S(=O)(=O)C(F)(F)F)C(F)(F)F | 0.377 ± 0.039 | 0.403 ± 0.04 | 0.427 ± 0.042 | 0.453 ± 0.043 | 0.479 ± 0.045 | 0.505 ± 0.046 | 0.531 ± 0.048
CC#N [acetonitrile] + CCCC[n+]1ccc(C#N)cc1.O=S(=O)([N-]S(=O)(=O)C(F)(F)F)C(F)(F)F | 0.432 ± 0.042 | 0.449 ± 0.043 | 0.466 ± 0.044 | 0.483 ± 0.045 | 0.5 ± 0.046 | 0.516 ± 0.047 | 0.531 ± 0.048
c1ccccc1 [benzene] + CCCC[n+]1ccc(C#N)cc1.O=S(=O)([N-]S(=O)(=O)C(F)(F)F)C(F)(F)F | 1.07 ± 0.09 | 1.12 ± 0.09 | 1.17 ± 0.1 | 1.22 ± 0.1 | 1.28 ± 0.11 | 1.32 ± 0.11 | 1.38 ± 0.12
CCCCO [butan-1-ol] + CCCC[n+]1ccc(C#N)cc1.O=S(=O)([N-]S(=O)(=O)C(F)(F)F)C(F)(F)F | 3.19 ± 0.28 | 2.94 ± 0.25 | 2.74 ± 0.24 | 2.56 ± 0.22 | 2.41 ± 0.21 | 2.28 ± 0.2 | 2.15 ± 0.19
CCC(C)O (stereo unspecified) [butan-2-ol] + CCCC[n+]1ccc(C#N)cc1.O=S(=O)([N-]S(=O)(=O)C(F)(F)F)C(F)(F)F | 2.69 ± 0.23 | 2.5 ± 0.2 | 2.33 ± 0.2 | 2.18 ± 0.19 | 2.06 ± 0.18 | 1.94 ± 0.17 | 1.84 ± 0.16
CCCC=O [butanal] + CCCC[n+]1ccc(C#N)cc1.O=S(=O)([N-]S(=O)(=O)C(F)(F)F)C(F)(F)F | 0.7 ± 0.06 | 0.738 ± 0.062 | 0.773 ± 0.065 | 0.811 ± 0.068 | 0.848 ± 0.071 | 0.884 ± 0.073 | 0.917 ± 0.076
C1CCCCCC1 [cycloheptane] + CCCC[n+]1ccc(C#N)cc1.O=S(=O)([N-]S(=O)(=O)C(F)(F)F)C(F)(F)F | 22.3 ± 1.9 | 20.6 ± 1.8 | 19.1 ± 1.7 | 17.8 ± 1.5 | 16.7 ± 1.4 | 15.6 ± 1.3 | 14.8 ± 1.3
